Test results taken from US20240181007A1, “COMPOSITIONS AND METHODS FOR TREATING PULMONARY HYPERTENSION” (Acceleron Pharma Inc., priority 2021, published 2024).

System: ZSF1-SU rats
Experiment: HFpEF induced PH rat model, ZSF1 rats challenged with semaxanib (Example 10)
Assay type: in vivo
Settings: relative to ZSF1-SU/PBS
Procedure: The effects of an ActRIIA-mFc fusion polypeptide (SEQ ID NO: 56) was examined in a rat model of left ventricular diastolic dysfunction (also referred to as HEpEF) group 2 (subgroup 2.2) pulmonary hypertension (PH). In this model, ZSF1-Lepr^faLepr^cp/Crl rats were challenged with semaxanib to induce HFpEF-PH(l).
Forty ZSF1 Lepr^faLepr^cp/Crl male […] (8 wks old) and five lean rats were subcutaneously administered with a single dose of semaxanib (100 mg/kg) at day 0, and five lean rats were included as normal control. Six weeks after semaxanib (SU5416) treatment, Thirty-six ZSF1 Lepr^faLepr^cp/Crl rats were randomized into four groups: i) nine rats were injected subcutaneously with vehicle control (phosphate buffered saline (PBS)), twice weekly for 8 weeks starting from day 42 after semaxanib treatment, “ZSF1-SU/PBS”; a ii) ten rats were injected subcutaneously with ActRIIA-mFc at a dose of 1 mg/kg twice weekly for 8 weeks starting from day 42 after semaxanib treatment, “ZSF1-SU/ActRIIA-mFc 1 mpk”: a iii) nine rats were injected subcutaneously with ActRIIA-mFc at a dose of 3 mg/kg twice weekly for 8 weeks starting from day 42 after semaxanib treatment, “ZSF1-SU/ActRIIA-mFc 3 mpk”; and a iv) eight rats were injected subcutaneously with ActRIIA-mFc at a dose of 10 mg/kg twice weekly for 8 weeks starting from day 42 after semaxanib treatment, “ZSF1-SU/ActRIIA-mFc 10 mpk”. At the end of the study, echocardiography and pressure-volume catheter were performed to measure left and right ventricular remodeling and functional changes before animals were euthanized for heart and lung collection. Hearts and lungs of each rat were weighed, fixed in 10% formalin, embedded in paraffin, and sectioned for Masson's trichrome stain to assess fibrosis. Serum and urine samples were collected at the end of the study.
Rats were fasted overnight to measure fasting blood glucose levels at week 14 (before treatments started), week 18 (4 weeks after treatments), and week 22, and oral glucose tolerance test was performed at week 22. Blood glucose levels were measured with a glucometer after bleeding tail vein with a 27G needle. To prepare oral glucose tolerance test, 40% glucose stock solution run through a filter to sterilize it. After fasting overnight, rat body weight was measured. Blood glucose level was detected. Then 40% glucose solution was administered via oral gavage according to body weight (2 g/kg). Blood glucose levels were measured at 30, 60, 90, 120 minutes.
Prior to euthanization, in vivo cardiac function was assessed by transthoracic echocardiography (Acuson P300, 18 MHz linear transducer; Siemens) in lightly anesthetized rats as described (2). From left ventricle short axis view, M-mode echocardiogram was acquired to measure interventricular septal thickness at end diastole (IVSd), left ventricular posterior wall thickness at end diastole (LVPWd), left ventricular end diastolic diameter (LVEDD), and left ventricular end systolic diameter (LVESD). Left ventricular mass (LVM) was assessed by the equation: 1.05 [(LVEDD+LVPTD+IVSd)^3-LVEDD^3]. Early diastolic filling peak velocity (E), early diastolic mitral annular velocity (E′), and isovolumetric relaxation time (IVRT) were measured from the medial or septal wall at the mitral valve level from tissue Doppler image. LV diastolic function was assessed by measuring the E/E′ ratio and IVRT. Pulmonary arterial acceleration time (PAAT), a parameter of right ventricular function, was also measured.
Fourteen weeks after semaxanib treatment, rats were anesthetized with ketamine (100 mg/kg) and xylazine (5 mg/kg) at the end of the experiment to evaluate cardiac and pulmonary hemodynamics. The respiration was supported by a small animal ventilator. Thoracotomy was made through 4-5 intercostal space, and the heart was exposed. A pressure-volume catheter (2.0-Fr, SPR-869, Millar Instruments, Houston, TX, USA) was be inserted into the left ventricle and right ventricle from the apex. […]

[1] = 1 mpk, 3 mpk and 10 mpk, FIGS. 41-43

Substance: ActRIIA-mFc: ActRIIA-mFc fusion polypeptide (SEQ ID NO: 56); extracellular domain fused to murine IgG2a Fc domain with a linker
- fasting blood glucose [1]: significantly reduced fasting blood glucose
- glucose level in urine [1]: decreased glucose level in urine
- glucose tolerance (oral glucose tolerance test) [1]: improved glucose tolerance
- E/E′ ratio (3 mpk and 10 mpk s.c. twice weekly for 8 weeks from day 42 after semaxanib, FIG. 29): reduced E/E′ ratio
- IVRT (3 mpk and 10 mpk s.c. twice weekly for 8 weeks from day 42 after semaxanib, FIG. 30): decreased IVRT
- RVFWT (3 mpk and 10 mpk s.c. twice weekly for 8 weeks from day 42 after semaxanib, FIG. 34): significantly reduced elevated RVFWT
- PAAT (3 mpk and 10 mpk s.c. twice weekly for 8 weeks from day 42 after semaxanib, FIG. 35): reduced PAAT
- RVSP (3 mpk and 10 mpk s.c. twice weekly for 8 weeks from day 42 after semaxanib, FIG. 36): reduced elevated RVSP
- left heart remodeling (HW/TL, IVSd, LVM) (3 mpk and 10 mpk s.c. twice weekly for 8 weeks from day 42 after semaxanib, FIGS. 31-33): significantly reduced left heart remodeling
- fibrosis in LV (s.c. twice weekly for 8 weeks, dose not given, FIG. 37): significantly reduced the increased fibrosis
- fibrosis in RV (s.c. twice weekly for 8 weeks, dose not given, FIG. 38): significantly reduced the increased fibrosis
- fibrosis in lung (s.c. twice weekly for 8 weeks, dose not given, FIG. 39): significantly reduced the increased fibrosis
